From patent US9822147B2, “Methods of treating ophthalmic diseases using NPR-B agonists” (priority 2009, dated 2017)
Numbered stars: 1 amine (or outer) side, 2 acyl side, 3 side chain; on linkers, the order of the positions; unused ones are H or OH. Square brackets hold non-standard residues; d marks the D form. Peptide text beside a SMILES is read from it. * marks the point of attachment. X3 = NCCN[C@@H]1C[C@@H](C(=O)[*:2])N([*:1])C1; Phe(4-Cl) = N[C@@H](Cc1ccc(Cl)cc1)C(=O)O; Pro(4R-NH2) = N[C@H]1CN[C@H](C(=O)O)C1; X9 = CN(C)CC[C@@H](N[*:1])C(=O)[*:2]; X2 = O=C([C@H]1CCCN([*:1])C1)[*:2]; dDap(Me2) = CN(C)C[C@@H](N)C(=O)O; Hyp = O=C(O)[C@@H]1C[C@@H](O)CN1; NMeF = CN[C@@H](Cc1ccccc1)C(=O)O; tBuAla = CC(C)(C)C[C@H](N)C(=O)O; NHcycloheptyl = C1CCCC(N*)CC1; NMeL = CN[C@@H](CC(C)C)C(=O)O; Octanoyl = CCCCCCCC(=O)*; Thz = O=C(O)[C@@H]1CSCN1

Target: T1, NPR-B (Homo sapiens, UniProt P20594)
T1 construct: a functional assay using endogenously NPR-B expressing GTM-3 cells; endogenous in cells; host or cells: GTM-3 (human glaucoma trabecular meshwork cells)
T1 sequence (P20594 23-1047): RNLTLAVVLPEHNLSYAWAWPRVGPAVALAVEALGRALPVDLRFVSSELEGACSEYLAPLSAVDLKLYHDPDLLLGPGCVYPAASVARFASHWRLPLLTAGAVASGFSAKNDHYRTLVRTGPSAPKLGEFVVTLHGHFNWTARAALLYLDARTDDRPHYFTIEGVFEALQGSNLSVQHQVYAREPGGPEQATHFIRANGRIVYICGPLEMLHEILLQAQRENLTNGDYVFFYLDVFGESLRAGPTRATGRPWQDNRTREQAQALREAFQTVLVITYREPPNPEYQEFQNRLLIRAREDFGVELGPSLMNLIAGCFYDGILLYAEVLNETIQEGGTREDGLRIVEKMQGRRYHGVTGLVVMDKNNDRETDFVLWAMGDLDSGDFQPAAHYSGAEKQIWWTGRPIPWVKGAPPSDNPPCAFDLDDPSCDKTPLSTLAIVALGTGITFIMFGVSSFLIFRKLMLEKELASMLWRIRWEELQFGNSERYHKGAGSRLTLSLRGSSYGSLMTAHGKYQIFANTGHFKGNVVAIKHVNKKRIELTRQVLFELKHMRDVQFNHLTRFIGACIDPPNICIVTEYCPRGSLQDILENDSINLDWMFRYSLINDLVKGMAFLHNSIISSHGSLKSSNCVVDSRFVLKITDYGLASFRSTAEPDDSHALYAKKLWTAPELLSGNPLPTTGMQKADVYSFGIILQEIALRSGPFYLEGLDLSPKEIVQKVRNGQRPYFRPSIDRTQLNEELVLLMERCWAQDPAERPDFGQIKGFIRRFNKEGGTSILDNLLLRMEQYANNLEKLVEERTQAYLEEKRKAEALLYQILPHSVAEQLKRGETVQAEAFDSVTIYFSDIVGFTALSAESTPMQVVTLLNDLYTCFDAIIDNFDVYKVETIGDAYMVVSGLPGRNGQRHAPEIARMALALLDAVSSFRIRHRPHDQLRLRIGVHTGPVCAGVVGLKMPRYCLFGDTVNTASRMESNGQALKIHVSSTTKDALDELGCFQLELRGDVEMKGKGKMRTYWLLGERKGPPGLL
Test: NPR-B induced production of cyclic GMP in human glaucoma trabecular meshwork cells (GTM-3)
Format: cell-based
Conditions: group by EC50 and Emax (CNP = 100%); Table 4; read-out: Activity (group), NPR-B activation assayed with GTM-3 cells

Row | Compound | EC50 [nM]
1 | CCCCCCCC(=O)N[C@H](C)C(=O)N[C@@H](Cc1ccccc1)C(=O)N[C@H](CC(C)C)C(=O)N[C@@H](CC(C)C)C(=O)N1C[C@H](O)C[C@H]1C(=O)N(C)[C@@H](CC(C)C)C(=O)N[C@@H](CC(=O)O)C(=O)N(C)[C@@H](CCCNC(=N)N)C(=O)N[C@H](C(N)=O)[C@@H](C)CC [JAL-1417, Occ-ala-Phe-leu-Leu-Hyp-Nml-Asp-Nmr-Ile-NH2] (HELM PEPTIDE1{[CCCCCCCC(=O)[*:2]].[dA].F.[dL].L.[Hyp].[meL].D.[meR].I.[am]}$$$$V2.0) | < 1000
2 | CCCCCCCC(=O)N1CCC[C@H](C(=O)N[C@@H](Cc2ccc(Cl)cc2)C(=O)N[C@H](CC(C)C)C(=O)N[C@@H](CC(C)C)C(=O)N2C[C@H](O)C[C@H]2C(=O)N(C)[C@@H](CC(C)C)C(=O)N[C@@H](CC(=O)O)C(=O)N[C@@H](CCCNC(=N)N)C(=O)N[C@H](C(N)=O)[C@@H](C)CC)C1 [JAL-1493, Occ-Sni-Pcf-leu-Leu-Hyp-Nml-Asp-Arg-Ile-NH2] (Octanoyl-[X2][Phe(4-Cl)][dL]L[Hyp][NMeL]DRI-NH2) | < 1000
3 | CCCCCCCC(=O)N1CCC[C@H](C(=O)N[C@@H](Cc2ccccc2)C(=O)N[C@H](CC(C)C)C(=O)N[C@@H](CC(C)C)C(=O)N2C[C@H](O)C[C@H]2C(=O)N[C@@H](CC(C)(C)C)C(=O)N[C@@H](CC(=O)O)C(=O)N2CCC[C@H]2C(=O)NC2CCCCCC2)C1 [JAL-1595, Occ-Sni-Phe-leu-Leu-Hyp-Npg-Asp-Pro-Che] (Octanoyl-[X2]F[dL]L[Hyp][tBuAla]DP-NHcycloheptyl) | < 1000
4 | CCCCCCCC(=O)N[C@H](C)C(=O)N[C@@H](Cc1ccccc1)C(=O)N[C@H](CC(C)C)C(=O)N[C@@H](CC(C)C)C(=O)N1C[C@H](O)C[C@H]1C(=O)N(C)[C@@H](CC(C)C)C(=O)N[C@@H](CC(=O)O)C(=O)N[C@@H](CCCNC(=N)N)C(=O)NC(C)(CC(C)C)C(N)=O (stereo partly drawn) [JAL-1414, Occ-ala-Phe-leu-Leu-Hyp-Nml-Asp-Arg-Aml-NH2] (HELM PEPTIDE1{[CCCCCCCC(=O)[*:2]].[dA].F.[dL].L.[Hyp].[meL].D.R.[CC(C)CC(C)(N[*:1])C(=O)[*:2]].[am]}$$$$V2.0) | < 1000
5 | CCCCCCCC(=O)N1CCC[C@H](C(=O)N[C@@H](Cc2ccccc2)C(=O)N[C@H](CC(C)C)C(=O)N[C@@H](CC(C)C)C(=O)N2C[C@H](O)C[C@H]2C(=O)N(C)[C@@H](CC(C)C)C(=O)N[C@H](C(=O)N[C@@H](CCCNC(=N)N)C(=O)N[C@H](C(N)=O)[C@@H](C)CC)C(C)C)C1 [JAL-1398, Occ-Sni-Phe-leu-Leu-Hyp-Nml-Val-Arg-Ile-NH2] (HELM PEPTIDE1{[CCCCCCCC(=O)[*:2]].[O=C([C@H]1CCCN([*:1])C1)[*:2]].F.[dL].L.[Hyp].[meL].V.R.I.[am]}$$$$V2.0) | < 1000
6 | CCCCCCCC(=O)N[C@H](C)C(=O)N[C@@H](Cc1ccccc1)C(=O)N[C@H](CC(C)C)C(=O)N[C@@H](CC(C)C)C(=O)N1C[C@H](N)C[C@H]1C(=O)N(C)[C@@H](CC(C)C)C(=O)N[C@@H](CC(=O)O)C(=O)N[C@@H](CCCNC(=N)N)C(=O)N[C@H](C(N)=O)[C@@H](C)CC [JAL-1296, Occ-ala-Phe-leu-Leu-Tap-Nml-Asp-Arg-Ile-NH2] (HELM PEPTIDE1{[CCCCCCCC(=O)[*:2]].[dA].F.[dL].L.[N[C@@H]1C[C@@H](C(=O)[*:2])N([*:1])C1].[meL].D.R.I.[am]}$$$$V2.0) | < 1000
7 | CCCCCCCC(=O)N1CCC[C@H](C(=O)N[C@@H](Cc2ccccc2)C(=O)N[C@H](CCCNC(=N)N)C(=O)N[C@@H](CC(C)C)C(=O)N2C[C@H](N)C[C@H]2C(=O)N(C)[C@@H](CC(C)C)C(=O)N[C@@H](CC(=O)O)C(=O)N[C@@H](CCCNC(=N)N)C(=O)N[C@H](C(N)=O)[C@@H](C)CC)C1 [JAL-1317, Occ-Sni-Phe-arg-Leu-Tap-Nml-Asp-Arg-Ile-NH2] (Octanoyl-[X2]F[dR]L[Pro(4R-NH2)][NMeL]DRI-NH2) | < 1000
8 | CCCCCCCC(=O)N1CCC[C@H](C(=O)N[C@@H](Cc2ccccc2)C(=O)N[C@H](CC(C)C)C(=O)N[C@@H](CC(C)C)C(=O)N2CCC[C@H]2C(=O)N(C)[C@@H](CC(C)C)C(=O)N[C@@H](CC(=O)O)C(=O)N[C@@H](CCCNC(=N)N)C(=O)N[C@H](C(N)=O)[C@@H](C)CC)C1 [JAL-1040, Occ-Sni-Phe-leu-Leu-Pro-Nml-Asp-Arg-Ile-NH2] (HELM PEPTIDE1{[CCCCCCCC(=O)[*:2]].[O=C([C@H]1CCCN([*:1])C1)[*:2]].F.[dL].L.P.[meL].D.R.I.[am]}$$$$V2.0) | < 1000
9 | CCCCCCCC(=O)N1CCC[C@H](C(=O)N[C@@H](Cc2ccccc2)C(=O)N[C@H](CC(C)C)C(=O)N[C@@H](CC(C)C)C(=O)N2C[C@H](N)C[C@H]2C(=O)N(C)[C@@H](CC(C)C)C(=O)N[C@@H](CC(=O)O)C(=O)N2CCC[C@H]2C(=O)N[C@H](C(N)=O)[C@@H](C)CC)C1 [JAL-1559, Occ-Sni-Phe-leu-Leu-Tap-Nml-Asp-Pro-Ile-NH2] (Octanoyl-[X2]F[dL]L[Pro(4R-NH2)][NMeL]DPI-NH2) | < 1000
10 | CCCCCCCC(=O)N1CCC[C@H](C(=O)N[C@@H](Cc2ccccc2)C(=O)N[C@H](CN(C)C)C(=O)N[C@@H](CC(C)C)C(=O)N2C[C@H](N)C[C@H]2C(=O)N(C)[C@@H](CC(C)C)C(=O)N[C@H](C(=O)N[C@@H](CCCNC(=N)N)C(=O)N[C@H](C(N)=O)[C@@H](C)CC)C(C)C)C1 [JAL-1403, Occ-Sni-Phe-dap(Me2)-Leu-Tap-Nml-Val-Arg-Ile-NH2] (Octanoyl-[X2]F[dDap(Me2)]L[Pro(4R-NH2)][NMeL]VRI-NH2) | < 1000

Other lines, results leading:

Row | EC50 [nM] | Compound
11 | < 1000 | CCCCCCCC(=O)N1CCC[C@H](C(=O)N[C@@H](Cc2ccccc2)C(=O)N[C@H](CN(C)C)C(=O)N[C@@H](CC(C)C)C(=O)N2C[C@H](O)C[C@H]2C(=O)N(C)[C@@H](CC(C)C)C(=O)N[C@@H](CC(=O)O)C(=O)N2CCC[C@H]2C(=O)NC2CCCCCC2)C1 [JAL-1604, Occ-Sni-Phe-dap(Me2)-Leu-Hyp-Nml-Asp-Pro-Che] (Octanoyl-[X2]F[dDap(Me2)]L[Hyp][NMeL]DP-NHcycloheptyl)
12 | < 1000 | CCCCCCCC(=O)N1CCC[C@H](C(=O)N[C@@H](Cc2ccccc2)C(=O)N[C@H](CCN(C)C)C(=O)N[C@@H](CC(C)C)C(=O)N2C[C@H](O)C[C@H]2C(=O)N(C)[C@@H](CC(C)C)C(=O)N[C@@H](CC(=O)O)C(=O)N[C@@H](CCCNC(=N)N)C(=O)N[C@H](C(N)=O)[C@@H](C)CC)C1 [JAL-1785, Occ-Sni-Phe-dab(Me2)-Leu-Hyp-Nml-Asp-Arg-Ile-NH2] (Octanoyl-[X2]F[X9]L[Hyp][NMeL]DRI-NH2)
13 | < 1000 | CCCCCCCC(=O)N1CCC[C@H](C(=O)N[C@@H](Cc2ccccc2)C(=O)N[C@H](CC(C)C)C(=O)N[C@@H](CC(C)C)C(=O)N2C[C@H](O)C[C@H]2C(=O)N(C)[C@@H](CC(C)C)C(=O)N[C@@H](CC(=O)O)C(=O)N2CSC[C@H]2C(=O)NC2CCCCCC2)C1 [JAL-1638, Occ-Sni-Phe-leu-Leu-Hyp-Nml-Asp-Eaz-Che] (Octanoyl-[X2]F[dL]L[Hyp][NMeL]D[Thz]-NHcycloheptyl)
14 | < 1000 | CCCCCCCC(=O)N1CCC[C@H](C(=O)N[C@@H](Cc2ccccc2)C(=O)N[C@H](CC(C)C)C(=O)N[C@@H](CC(C)C)C(=O)N2C[C@H](NCCN)C[C@H]2C(=O)N(C)[C@@H](CC(C)C)C(=O)N[C@@H](CC(=O)O)C(=O)N[C@@H](CCCNC(=N)N)C(=O)NC2CCCCCC2)C1 [JAL-1681, Occ-Sni-Phe-leu-Leu-Tap(Ae)-Nml-Asp-Arg-Che] (Octanoyl-[X2]F[dL]L[X3][NMeL]DR-NHcycloheptyl)
15 | < 1000 | CCCCCCCC(=O)N1CCC[C@H](C(=O)N[C@@H](Cc2ccccc2)C(=O)N[C@H](CC(C)C)C(=O)N[C@@H](CC(C)C)C(=O)N2C[C@H](O)C[C@H]2C(=O)N(C)[C@@H](CC(C)C)C(=O)N[C@H](C(=O)N[C@@H](CCCNC(=N)N)C(=O)N[C@H](C(N)=O)[C@@H](C)CC)[C@@H](C)O)C1 [JAL-1932, Occ-Sni-Phe-leu-Leu-Hyp-Nml-Thr-Arg-Ile-NH2] (HELM PEPTIDE1{[CCCCCCCC(=O)[*:2]].[O=C([C@H]1CCCN([*:1])C1)[*:2]].F.[dL].L.[Hyp].[meL].T.R.I.[am]}$$$$V2.0)
16 | < 1000 | CCCCCCCC(=O)N1CCC[C@H](C(=O)N(C)[C@@H](Cc2ccccc2)C(=O)N[C@H](CC(C)C)C(=O)N[C@@H](CC(C)C)C(=O)N2C[C@H](O)C[C@H]2C(=O)N(C)[C@@H](CC(C)C)C(=O)N[C@@H](CC(=O)O)C(=O)N2CCC[C@H]2C(=O)NC2CCCCCC2)C1 [JAL-1597, Occ-Sni-Nmf-leu-Leu-Hyp-Nml-Asp-Pro-Che] (Octanoyl-[X2][NMeF][dL]L[Hyp][NMeL]DP-NHcycloheptyl)
